Reference: PubChem BioAssay (NCI)
Values joined by “and” are separate entries in the source; they are usually repeats but may differ in a detail not shown here. Equal values may be shown once.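 1) Cells in 96-well plates. 2) Compound, 48 h, 5 concentrations. 3) Linear interpolation between surrounding doses. 4) Unreached endpoint = highest concentration. At the GI50, growth is halved. Definition used: TGI = concentration required for complete inhibition of growth.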

Key:
Assay in all cases: NCI-60 cell line screen, 48 h
RXF 393 renal = test system: RXF 393 renal
K-562 leukemia = test system: K-562 leukemia
U251 CNS = test system: U251 CNS
MOLT-4 leukemia = test system: MOLT-4 leukemia
CCRF-CEM leukemia = test system: CCRF-CEM leukemia
COLO 205 colon = test system: COLO 205 colon
SK-MEL-28 melanoma = test system: SK-MEL-28 melanoma
T-47D breast = test system: T-47D breast
RPMI-8226 leukemia = test system: RPMI-8226 leukemia
UACC-62 melanoma = test system: UACC-62 melanoma

Row | SMILES | TGI (RXF 393 renal) | TGI (K-562 leukemia) [µM] | TGI (U251 CNS) | TGI (MOLT-4 leukemia) [µM] | TGI (CCRF-CEM leukemia) [µM] | TGI (COLO 205 colon) [µM] | TGI (SK-MEL-28 melanoma) | TGI (T-47D breast) [µM] | TGI (RPMI-8226 leukemia) [µM] | TGI (UACC-62 melanoma) | GI50 (RXF 393 renal) [µM] | GI50 (K-562 leukemia) [µM] | GI50 (U251 CNS) [µM] | GI50 (MOLT-4 leukemia) [µM] | GI50 (CCRF-CEM leukemia) [µM] | GI50 (COLO 205 colon) [µM] | GI50 (SK-MEL-28 melanoma) [µM] | GI50 (T-47D breast) [µM] | GI50 (RPMI-8226 leukemia) [µM] | GI50 (UACC-62 melanoma) [µM]
1 | CCOC(=O)C(=Cc1ccc(Oc2ccccc2)cc1)C(=O)OCC | 4.69 µM | 5.27 | 9.25 µM | 4.93 | 6.75 | 11.4 | 7.49 µM | 24.6 | 6.89 | 3.26 µM | – | – | – | – | – | – | – | – | – | –
2 | COC(=O)C1=C(C)NC(C)=C(C(=O)OC)C1/C=C(Cl)/C=C/c1ccccc1 | 46.6 µM | 54.7 | 58.5 µM | 41 | 60 | 75.6 | 35 µM | > 100 | > 100 | 30.8 µM | 18.4 | 22.8 | 23 | 18.4 | 29.6 | 30.9 | 17.1 | 42.9 | 32.2 | 16.1
3 | COc1ccc(/C(C#N)=C/c2ccc(OC)c(OC)c2)cc1 | > 100 µM | > 100 | > 100 µM | > 100 | > 100 | > 100 | > 100 µM | > 100 | > 100 | > 100 µM | – | – | – | – | – | – | – | – | – | –
4 | CCNC(=O)c1cc2c(-c3cc(C(C)(C)O)ccc3Oc3c(C)cc(F)cc3C)cn(C)c(=O)c2[nH]1 | 5.2 µM | > 100 | 16.7 µM | 10.2 | 23.9 | 2.84 | 17.9 µM | 18 | 8.98 | 9.42 µM | 1.81 | 1.86 | 2.09 | 2.36 | 2.21 | 0.507 | 4.37 | 1.08 | 0.605 | 0.17
5 | COc1ccc(Cn2cc3c(c2-c2ccc(OC)cc2)CCc2cnoc2-3)cc1 | – | > 100 | > 100 µM | > 35 | > 100 | 0.815 | > 100 µM | > 100 | – | > 100 µM | 0.322 | 0.349 | 0.444 | 0.504 | 0.364 | 0.296 | 0.804 | 0.533 | 0.336 | 0.547
6 | Cc1cc(Cl)ccc1NC(=O)c1cc2ccccc2cc1O | 8.6 µM | > 100 | > 27.5 µM | > 36.2 | > 100 | 30.5 | > 100 µM | > 26.8 | 1.18 | > 100 µM | 1.18 | 0.419 | 0.503 | 0.651 | 1.22 | 6.46 | 0.767 | 0.852 | 0.294 | 0.354
7 | NC(=O)c1cc(-c2ccc(F)cc2)cc(-c2ccncc2)c1N | > 25 µM | > 25 | > 25 µM | > 25 | > 25 | > 25 | > 25 µM | > 25 | > 25 | > 25 µM | > 18.6 | > 25 | > 25 | > 25 | > 25 | > 25 | > 25 | > 25 | > 25 | > 25
8 | N#CSCC1CC(O)(c2ccccc2)CC(c2ccc(F)cc2)O1 (configuration not stated) | 3.47 µM | 7.31 | 3.13 µM | 3.51 | 6.08 | 4.25 | 15.4 µM | 4.98 | 4.65 | 6.12 µM | 1.72 | 2.14 | 1.7 | 0.674 | 1.72 | 2.02 | 4.23 | 1.78 | 1.64 | 2.14
9 | CC1(C)[C@@H](O[C@@H]2OC[C@@H](O[C@@H]3O[C@H](CO)[C@@H](O)[C@H](O)[C@H]3O[C@@H]3OC[C@@H](O)[C@H](O)[C@H]3O)[C@H](O)[C@H]2O[C@@H]2O[C@H](CO)[C@@H](O)[C@H](O)[C@H]2O)CC[C@]2(C)[C@H]3CC[C@]45OC[C@@]6(CC[C@](C)(C=O)C[C@H]64)[C@H](O)C[C@@]5(C)[C@]3(C)CC[C@@H]12 | 2.07 µM | 5.51 | 2.01 µM | 2.31 | 3.13 | 2.01 | 1.77 µM | 5 | 2.56 | 1.81 µM | 0.892 | 1.81 | 0.99 | 0.962 | 1.02 | 1.02 | 0.903 | 1.52 | 1.12 | 0.909
10 | O=C(O)c1cccc(N=Nc2c(S(=O)(=O)O)ccc3c2C(=O)c2ccccc2C3=O)c1O | > 100 µM | > 100 | > 100 µM | > 100 | > 100 | > 100 | > 100 µM | > 100 | > 100 | > 100 µM | – | – | – | – | – | – | – | – | – | –
11 | O=C(/C=C/c1cc([N+](=O)[O-])ccc1Cl)c1ccccc1 | 28.1 µM | > 100 | 8.04 µM | > 100 | > 100 | 48.2 | 29 µM | > 100 | 14.6 | 32.3 µM | 14.7 | 6.66 | 2.56 | 21.1 | 26.9 | 23 | 14.3 | 27.9 | 3.68 | 13.8
12 | CC(=O)O[C@]1(C(C)=O)CC[C@H]2[C@@H]3C=C(C)C4=CC(=O)CC[C@]4(C)[C@H]3CC[C@@]21C | > 100 µM | > 100 | > 100 µM | > 100 | > 100 | > 100 | > 100 µM | > 100 | > 100 | > 100 µM | 57.5 | 20.7 | > 60.9 | 43.2 | > 80.4 | > 100 | > 100 | > 64.7 | 2.78 | > 71.8
13 | O=C(NP(=O)(N1CC1)N1CC1)c1cc(I)ccc1I | > 87.8 µM | > 100 | > 100 µM | > 100 | > 78.8 | > 100 | > 100 µM | > 100 | > 100 | 57.6 µM | – | – | – | – | – | – | – | – | – | –
14 | COc1cc(C2=C(C#Cc3ccccc3)COC2=O)cc(OC)c1OC | > 100 µM | > 100 | 5.61 µM | > 100 | 59.3 | > 94.6 | > 100 µM | > 100 | 4.05 | 4.12 µM | 1.35 | 0.629 | 1.91 | 30.1 | 3.39 | 4.89 | – | 13.3 | 1.34 | 0.288
15 | CCCCCCCCCCCC1CCCC(C)N1 (configuration not stated) | 35.6 µM and 108 µM | – | 18.2 µM and 128 µM | – | – | – | 28.2 µM and 152 µM | 12.8 | – | 23.6 µM and 102 µM | 15.2 | 1.96 | 4.53 | 1.79 | 1.45 | 1.56 | 13.6 | 2.16 | 1.66 | 8.12
